This assay deals with T1, GABA A α5 (Homo sapiens, UniProt P18507+P31644).
T1 construct: expressed in transfected cells; host or cells: HEK293 cells, transiently transfected; membranes prepared from cell pellets
Briefly: [3H]flumazenil competition binding, human GABA A α5β3γ2 receptors in HEK293 cell membranes. The conditions noted are these: human receptor α5β3γ2 transiently transfected in HEK293; 0.5 nM [3H]flumazenil; 1 hour at 4° C.; means of two determinations; read-out: hKi GABA A α5. The method, boiled down: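 Competition with [3H]flumazenil for binding to membranes of HEK293 cells transiently expressing human α5β3γ2, in Krebs-tris buffer pH 7.5. Incubated to equilibrium 1 h at 4 °C, filtered and scintillation-counted; Ki values are means of two determinations.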
With `Cc1onc(-c2ccc(F)cc2)c1COc1cc(C(=O)NN2CCCCC2)n(C)n1` [Example 49, 5-[3-(4-Fluoro-phenyl)-5-methyl-isoxazol-4-ylmethoxy]-2-methyl-2H-pyrazole-3-carboxylic acid piperidin-1-ylamide], the Ki came to 19.3 nM.
The value for `Cc1onc(-c2ccc(F)cc2)c1COc1cc(C(=O)NN2CCOCC2)n(C)n1` [Example 50, 5-[3-(4-Fluoro-phenyl)-5-methyl-isoxazol-4-ylmethoxy]-2-methyl-2H-pyrazole-3-carboxylic acid morpholin-4-ylamide] was 3.5 nM; that for `Cc1onc(-c2ccc(F)cc2)c1COc1cc(C(=O)NN2CCCC2)n(C)n1` [Example 51, 5-[3-(4-Fluoro-phenyl)-5-methyl-isoxazol-4-ylmethoxy]-2-methyl-2H-pyrazole-3-carboxylic acid pyrrolidin-1-ylamide] was 11.4 nM; that for `Cc1onc(-c2ccc(F)cc2)c1COc1cc(C(=O)NC(C)C)n(C)n1` [Example 52, 5-[3-(4-Fluoro-phenyl)-5-methyl-isoxazol-4-ylmethoxy]-2-methyl-2H-pyrazole-3-carboxylic acid isopropylamide] was 7.4 nM.
As for `Cc1onc(-c2ccc(F)cc2)c1COc1cc(C(=O)NC2CCOCC2)n(C)n1` [Example 53, 5-[3-(4-Fluoro-phenyl)-5-methyl-isoxazol-4-ylmethoxy]-2-methyl-2H-pyrazole-3-carboxylic acid (tetrahydro-pyran-4-yl)-amide], the Ki came out at 1.2 nM.
Turning to `Cc1onc(-c2ccc(F)cc2)c1COc1cc(C(N)=O)n(C)n1` [Example 54, 5-[3-(4-Fluoro-phenyl)-5-methyl-isoxazol-4-ylmethoxy]-2-methyl-2H-pyrazole-3-carboxylic acid amide], the Ki was 12 nM.
The value for `Cc1onc(-c2ccc(F)cc2)c1COc1cc(C(=O)NC(C)(C)CO)n(C)n1` [Example 55, 5-[3-(4-Fluoro-phenyl)-5-methyl-isoxazol-4-ylmethoxy]-2-methyl-2H-pyrazole-3-carboxylic acid (2-hydroxy-1,1-dimethyl-ethyl)-amide] was 29.6 nM.
The value for `Cc1onc(-c2ccc(F)cc2)c1COc1cc(C(=O)NC2(C)COC2)n(C)n1` [Example 58, 5-[3-(4-Fluoro-phenyl)-5-methyl-isoxazol-4-ylmethoxy]-2-methyl-2H-pyrazole-3-carboxylic acid (3-methyl-oxetan-3-yl)-amide] was 4.3 nM.
For the molecule `COCCNC(=O)c1cc(OCc2c(-c3ccc(F)cc3)noc2C)nn1C` [Example 60, 5-[3-(4-Fluoro-phenyl)-5-methyl-isoxazol-4-ylmethoxy]-2-methyl-2H-pyrazole-3-carboxylic acid (2-methoxy-ethyl)-amide], the Ki worked out at 13.2 nM.
The figure for `Cc1onc(-c2ccc(F)cc2)c1COc1cc(C(=O)NCC2(O)CC2)n(C)n1` [Example 61, 5-[3-(4-Fluoro-phenyl)-5-methyl-isoxazol-4-ylmethoxy]-2-methyl-2H-pyrazole-3-carboxylic acid (1-hydroxy-cyclopropylmethyl)-amide] is 7.4 nM; for `Cc1onc(-c2ccc(F)cc2)c1COc1cc(C(=O)NCCO)n(C)n1` [Example 62, 5-[3-(4-Fluoro-phenyl)-5-methyl-isoxazol-4-ylmethoxy]-2-methyl-2H-pyrazole-3-carboxylic acid (2-hydroxy-ethyl)-amide] it is 7.1 nM.
Regarding `Cc1onc(-c2ccc(F)cc2)c1COc1cc(C(=O)Nc2ccn(C)n2)n(C)n1` [Example 63, 5-[3-(4-Fluoro-phenyl)-5-methyl-isoxazol-4-ylmethoxy]-2-methyl-2H-pyrazole-3-carboxylic acid (1-methyl-1H-pyrazol-3-yl)-amide], the Ki turned out to be 13.1 nM.
`CC(=O)NCCNC(=O)c1cc(OCc2c(-c3ccc(F)cc3)noc2C)nn1C` [Example 64, 5-[3-(4-Fluoro-phenyl)-5-methyl-isoxazol-4-ylmethoxy]-2-methyl-2H-pyrazole-3-carboxylic acid (2-acetylamino-ethyl)-amide]: the Ki amounted to 16.1 nM.
Take `Cc1onc(-c2ccc(F)cc2)c1COc1cc(C(=O)NCC(C)(C)CO)n(C)n1` [Example 65, 5-[3-(4-Fluoro-phenyl)-5-methyl-isoxazol-4-ylmethoxy]-2-methyl-2H-pyrazole-3-carboxylic acid (3-hydroxy-2,2-dimethyl-propyl)-amide]: the Ki was determined as 5.8 nM.
The figure for `Cc1onc(-c2ccc(F)cc2)c1COc1cc(C(=O)NCC(C)(C)O)n(C)n1` [Example 66, 5-[3-(4-Fluoro-phenyl)-5-methyl-isoxazol-4-ylmethoxy]-2-methyl-2H-pyrazole-3-carboxylic acid (2-hydroxy-2-methyl-propyl)-amide] is 6.5 nM.
As for `Cc1onc(-c2ccc(F)cc2)c1COc1cc(C(=O)N2CC(O)C2)n(C)n1` [Example 71, {5-[3-(4-Fluoro-phenyl)-5-methyl-isoxazol-4-ylmethoxy]-2-methyl-2H-pyrazol-3-yl}-(3-hydroxy-azetidin-1-yl)-methanone], the Ki was 16.5 nM.
The value for `Cc1onc(-c2ccc(F)cc2)c1COc1cc(C(=O)N[C@H]2CCC[C@@H]2O)n(C)n1` [Example 73, (+5-[3-(4-Fluoro-phenyl)-5-methyl-isoxazol-4-ylmethoxy]-2-methyl-2H-pyrazole-3-carboxylic acid ((1R,2R)-2-hydroxy-cyclopentyl)-amideand/or 5-[3-(4-Fluoro-phenyl)-5-methyl-isoxazol-4-ylmethoxy]-2-methyl-2H-pyrazole-3-carboxylic acid ((18,28)-2-hydroxy-cyclopentyl)-amide] was 9.4 nM; that for `Cc1onc(-c2ccc(F)cc2)c1COc1cc(C(=O)N2CC3(COC3)C2)n(C)n1` [Example 77, {5-[3-(4-Fluoro-phenyl)-5-methyl-isoxazol-4-ylmethoxy]-2-methyl-2H-pyrazol-3-yl}-(2-oxa-6-aza-spiro[3.3]hept-6-yl)-methanone] was 45.8 nM; that for `Cc1onc(-c2ccccn2)c1COc1cc(C(=O)NC(C)C)n(C)n1` [Example 78, 2-Methyl-5-(5-methyl-3-pyridin-2-yl-isoxazol-4-ylmethoxy)-2H-pyrazole-3-carboxylic acid isopropylamide] was 30.2 nM.
The value for `Cc1onc(-c2ccccn2)c1COc1cc(C(=O)NC2CCOCC2)n(C)n1` [Example 79, 2-Methyl-5-(5-methyl-3-pyridin-2-yl-isoxazol-4-ylmethoxy)-2H-pyrazole-3-carboxylic acid (tetrahydro-pyran-4-yl)-amide] was 6.5 nM; that for `Cc1onc(-c2ccc(F)cn2)c1COc1cc(C(=O)NN(C)C)n(C)n1` [Example 82, 5-[3-(5-Fluoro-pyridin-2-yl)-5-methyl-isoxazol-4-ylmethoxy]-2-methyl-2H-pyrazole-3-carboxylic acid N′,N′-dimethyl-hydrazide] was 29.5 nM; that for `Cc1onc(-c2ccc(F)cn2)c1COc1cc(C(=O)NCCO)n(C)n1` [Example 83, 5-[3-(5-Fluoro-pyridin-2-yl)-5-methyl-isoxazol-4-ylmethoxy]-2-methyl-2H-pyrazole-3-carboxylic acid (2-hydroxy-ethyl)-amide] was 11 nM.
The value for `Cc1onc(-c2ccc(F)cn2)c1COc1cc(C(=O)NC2CCOCC2)n(C)n1` [Example 84, 5-[3-(5-Fluoro-pyridin-2-yl)-5-methyl-isoxazol-4-ylmethoxy]-2-methyl-2H-pyrazole-3-carboxylic acid (tetrahydro-pyran-4-yl)-amide] was 3.5 nM; that for `CCCCc1noc(C)c1COc1cc(C(=O)NCCO)n(C)n1` [Example 85, 5-(3-Butyl-5-methyl-isoxazol-4-ylmethoxy)-2-methyl-2H-pyrazole-3-carboxylic acid (2-hydroxy-ethyl)-amide] was 27.6 nM.
Consider `CCCCc1noc(C)c1COc1cc(C(=O)NC(C)C)n(C)n1` [Example 86, 5-(3-Butyl-5-methyl-isoxazol-4-ylmethoxy)-2-methyl-2H-pyrazole-3-carboxylic acid isopropylamide], for which the Ki is 39.2 nM.
As to `CCCCc1noc(C)c1COc1cc(C(=O)NC2CCOCC2)n(C)n1` [Example 88, 5-(3-Butyl-5-methyl-isoxazol-4-ylmethoxy)-2-methyl-2H-pyrazole-3-carboxylic acid (tetra-hydro-pyran-4-yl)-amide], the Ki amounted to 8.7 nM.
The value for `Cc1onc(C2CCOCC2)c1COc1cc(C(=O)NC2CCOCC2)n(C)n1` [Example 90, 2-Methyl-5-[5-methyl-3-(tetrahydro-pyran-4-yl)-isoxazol-4-ylmethoxy]-2H-pyrazole-3-carboxylic acid (tetrahydro-pyran-4-yl)-amide] was 24.4 nM; that for `Cn1nc(OCc2c(-c3ccc(F)cc3)noc2CO)cc1C(=O)NC1CCOCC1` [Example 91, 5-[3-(4-Fluoro-phenyl)-5-hydroxymethyl-isoxazol-4-ylmethoxy]-2-methyl-2H-pyrazole-3-carboxylic acid (tetrahydro-pyran-4-yl)-amide] was 1 nM.
The value for `CC(C)NC(=O)c1cc(OCc2c(-c3ccc(F)cc3)noc2CO)nn1C` [Example 92, 5-[3-(4-Fluoro-phenyl)-5-hydroxymethyl-isoxazol-4-ylmethoxy]-2-methyl-2H-pyrazole-3-carboxylic acid isopropylamide] was 9.5 nM; that for `Cn1nc(OCc2c(-c3ccc(F)cc3)noc2CO)cc1C(N)=O` [Example 93, 5-[3-(4-Fluoro-phenyl)-5-hydroxymethyl-isoxazol-4-ylmethoxy]-2-methyl-2H-pyrazole-3-carboxylic acid amide] was 14.7 nM.
The figure for `Cn1nc(OCc2c(-c3ccc(F)cc3)noc2CO)cc1C(=O)NCC(F)(F)C(F)(F)F` [Example 95, 5-[3-(4-Fluoro-phenyl)-5-hydroxymethyl-isoxazol-4-ylmethoxy]-2-methyl-2H-pyrazole-3-carboxylic acid (2,2,3,3,3-pentafluoro-propyl)-amide] is 8 nM.

These data come from patent US8163728B2, “Pyrazoles” (Hoffmann-La Roche Inc., priority 2009, dated 2012).
